In assay [1] the target is carbonic anhydrase I enzyme (Homo sapiens (Human), UniProt P00915). In words: Carbonic Anhydrase 1 Enzymatic Assay. As to conditions: enzyme from human erythrocyte, 500 μM 4-nitrophenyl acetate, absorbance 400 nm; read-out: CA I IC50. The format is biochemical. As for the experimental part: Carbonic Anhydrase 1 Enzymatic Assay
Test compound and/or vehicle was preincubated with carbonic anhydrase I enzyme (15 μg/ml) isolated from human erythrocyte in reaction buffer (50 mM MOPS solution pH 7.5) for 15 minutes at 25° C. The reaction was initiated by addition of 500 μM 4-nitrophenyl acetate and incubated for 30 minutes. The plate was read on a spectrophotometer (Absorbance: 400 nm)

Assay [2] has as its target Recombinant human ENPP3 protein (Homo sapiens (Human), UniProt O14638). Briefly: ENPP3 cGAMP Biochemical Assay. As to conditions: 70.5 nM ENPP3, 120 μM 2′3′-cGAMP substrate, TR-FRET. The method in brief:
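Compound was preincubated 30 min at room temperature with recombinant human ENPP3 (final 70.5 nM) in Tris pH 7.5 with Mg, Ca, Zn and TCEP. 2′3′-cGAMP (120 μM final) was then hydrolysed for 60 min at 25 °C. AMP/GMP product was detected by TR-FRET tracer-displacement immunoassay after 120 min.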
Background: TR-FRET usually uses a lanthanide donor and a delayed reading to cut background.

Assay [3] has as its target Recombinant human ENPP1 protein (Homo sapiens (Human), UniProt P22413). In words: ENPP1 cGAMP Biochemical Assay. As to conditions: 0.5 nM ENPP1, 1000 nM 2′3′-cGAMP substrate, TR-FRET. The gist of the method: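 Recombinant human ENPP1 (final 0.5 nM) preincubated with compound 30 min at room temperature in 50 mM Tris pH 7.5, 1 mM TCEP, 2 mM MgCl2, 0.005% Tween20; 2′3′-cGAMP (1000 nM final) added, 60 min at 25 °C. AMP/GMP product detected by TR-FRET antibody/tracer competition (2 nM), 120 min.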

Assay [4] concerns the target carbonic anhydrase II enzyme (Homo sapiens (Human), UniProt P00918). Briefly: Carbonic Anhydrase 2 Enzymatic Assay. The assay is classed as biochemical. As to conditions: enzyme from human erythrocyte, 500 μM 4-nitrophenyl acetate, absorbance 400 nm; read-out: CA II IC50. As for the experimental part:
Carbonic Anhydrase 2 Enzymatic Assay
Test compound and/or vehicle was preincubated with carbonic anhydrase II enzyme (15 μg/ml) isolated from human erythrocyte in reaction buffer (50 mM MOPS solution pH 7.5) for 15 minutes at 25° C. The reaction was initiated by addition of 500 μM 4-nitrophenyl acetate and incubated for 30 minutes. The plate was read on a spectrophotometer (Absorbance: 400 nm)

SMILES strings stand for the structures.

The IC50 is the concentration that gives 50% inhibition.

Chain of Recombinant human ENPP3 protein (O14638 whole entry): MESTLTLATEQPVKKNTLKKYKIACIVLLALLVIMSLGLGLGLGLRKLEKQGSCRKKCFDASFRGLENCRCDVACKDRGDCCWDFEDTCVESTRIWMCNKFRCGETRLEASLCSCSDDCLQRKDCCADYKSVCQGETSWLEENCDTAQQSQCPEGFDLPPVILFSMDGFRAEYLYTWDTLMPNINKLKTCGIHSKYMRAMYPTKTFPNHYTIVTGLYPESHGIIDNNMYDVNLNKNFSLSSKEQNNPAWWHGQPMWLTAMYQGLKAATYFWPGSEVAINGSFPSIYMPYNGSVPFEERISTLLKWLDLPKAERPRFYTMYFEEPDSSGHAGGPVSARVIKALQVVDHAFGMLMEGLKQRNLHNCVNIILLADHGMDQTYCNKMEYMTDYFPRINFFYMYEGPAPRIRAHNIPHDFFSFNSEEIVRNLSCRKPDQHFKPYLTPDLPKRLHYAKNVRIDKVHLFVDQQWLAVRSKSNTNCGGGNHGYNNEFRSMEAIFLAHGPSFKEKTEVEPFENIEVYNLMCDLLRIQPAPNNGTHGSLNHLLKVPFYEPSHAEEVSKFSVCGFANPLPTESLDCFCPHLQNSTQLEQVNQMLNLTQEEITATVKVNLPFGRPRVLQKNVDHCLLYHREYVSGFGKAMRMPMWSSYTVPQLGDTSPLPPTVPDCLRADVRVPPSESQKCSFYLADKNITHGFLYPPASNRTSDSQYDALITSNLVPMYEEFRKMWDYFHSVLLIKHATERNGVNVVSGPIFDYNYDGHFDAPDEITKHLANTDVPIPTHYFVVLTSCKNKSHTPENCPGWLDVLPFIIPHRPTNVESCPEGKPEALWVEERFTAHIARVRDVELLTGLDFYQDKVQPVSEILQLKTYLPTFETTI
Chain of carbonic anhydrase I enzyme (P00915 whole entry): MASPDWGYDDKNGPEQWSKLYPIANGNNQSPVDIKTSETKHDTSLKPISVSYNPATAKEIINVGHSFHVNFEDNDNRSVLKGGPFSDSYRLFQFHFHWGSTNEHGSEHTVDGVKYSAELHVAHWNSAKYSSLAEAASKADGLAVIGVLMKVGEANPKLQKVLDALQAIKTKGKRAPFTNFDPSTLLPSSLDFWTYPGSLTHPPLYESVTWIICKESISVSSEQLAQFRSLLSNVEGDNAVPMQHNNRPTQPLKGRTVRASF
Chain of Recombinant human ENPP1 protein (P22413 whole entry): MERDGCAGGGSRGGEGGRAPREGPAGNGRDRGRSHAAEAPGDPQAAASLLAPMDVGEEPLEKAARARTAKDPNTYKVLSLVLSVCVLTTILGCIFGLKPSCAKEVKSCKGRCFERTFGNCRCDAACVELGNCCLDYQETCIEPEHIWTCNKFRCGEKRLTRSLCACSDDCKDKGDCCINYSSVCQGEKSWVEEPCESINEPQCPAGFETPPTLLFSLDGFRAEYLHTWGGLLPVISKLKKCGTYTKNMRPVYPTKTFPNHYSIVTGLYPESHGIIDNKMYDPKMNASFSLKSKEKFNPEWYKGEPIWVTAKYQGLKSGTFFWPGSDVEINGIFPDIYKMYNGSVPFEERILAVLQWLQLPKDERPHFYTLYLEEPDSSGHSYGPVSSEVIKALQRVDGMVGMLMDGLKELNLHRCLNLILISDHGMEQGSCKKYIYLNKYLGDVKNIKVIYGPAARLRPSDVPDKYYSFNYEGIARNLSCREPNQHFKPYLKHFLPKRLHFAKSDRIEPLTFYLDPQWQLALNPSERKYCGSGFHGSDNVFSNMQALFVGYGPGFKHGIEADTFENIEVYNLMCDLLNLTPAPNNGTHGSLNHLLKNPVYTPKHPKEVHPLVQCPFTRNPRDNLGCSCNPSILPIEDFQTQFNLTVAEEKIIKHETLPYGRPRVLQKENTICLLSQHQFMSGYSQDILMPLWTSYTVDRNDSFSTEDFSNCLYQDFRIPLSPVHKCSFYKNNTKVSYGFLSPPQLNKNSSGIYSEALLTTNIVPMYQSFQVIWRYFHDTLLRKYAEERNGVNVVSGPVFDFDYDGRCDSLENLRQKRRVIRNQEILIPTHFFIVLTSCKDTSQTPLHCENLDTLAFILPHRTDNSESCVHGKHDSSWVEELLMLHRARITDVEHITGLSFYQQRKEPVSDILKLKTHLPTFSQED

`C#CCn1nc(Cl)c2c(NCC3CCN(S(N)(=O)=NC)CC3)ccnc21` (stereo not drawn) [Compound 15D, 4-(((3-chloro-1-(prop-2-yn-1-yl)-1H-pyrazolo[3,4-b]pyridine-4-yl)amino)methyl)-N′-methylpiperidine-1-sulfonimidamide]: the IC50 was at least 1000 nM in assay [1], 10 to 100 nM in assay [2], below 10 nM in assay [3] and at least 1000 nM in assay [4].

For the molecule `C#CCn1nc(Cl)c2c(NCc3ccc([S@](=N)(=O)NC#N)cc3)ccnc21` [Compound 12J, (R)-4-(((3-chloro-1-(prop-2-yn-1-yl)-1H-pyrazolo[3,4-b]pyridin-4-yl)amino)methyl)-N-cyanobenzenesulfonimidamide], the IC50 in assay [1] is 100 to 1000 nM; in assay [2] it was below 10 nM; in assay [3], below 10 nM; in assay [4], at least 1000 nM.

For the molecule `N#CCn1nc(Cl)c2c(NCC3CCN([S@@](N)(=O)=NC#N)CC3)ccnc21` [Compound 15E, (S)-4-(((3-chloro-1-(cyanomethyl)-1H-pyrazolo[3,4-b]pyridine-4-yl)amino)methyl)-N′-cyanopiperidine-1-sulfonimidamide], the IC50 was 100 to 1000 nM in assay [1], below 10 nM in assay [2], below 10 nM in assay [3] and at least 1000 nM in assay [4].

Consider `CCn1nc(Cl)c2c(NCC3CCN(S(=N)(=O)CCC#N)CC3)ccnc21` (stereo not drawn) [Compound 14E, 3-(4-(((3-chloro-1-ethyl-1H-pyrazolo[3,4-b]pyridin-4-yl)amino)methyl)piperidine-1-sulfonimidoyl)propanenitrile], for which the IC50 was at least 1000 nM in assay [1], at least 1000 nM in assay [2], 10 to 100 nM in assay [3] and at least 1000 nM in assay [4].

For the molecule `C#CCn1nc(Cl)c2c(NCc3ccc(S(N)(=O)=NC#N)cc3)ccnc21` (stereo not drawn) [Compound 12I, 4-(((3-chloro-1-(prop-2-yn-1-yl)-1H-pyrazolo[3,4-b]pyridin-4-yl)amino)methyl)-N′-cyanobenzenesulfonimidamide], the IC50 in assay [1] was 100 to 1000 nM; in assay [2] it was below 10 nM; in assay [3] it was below 10 nM; in assay [4], at least 1000 nM.

Regarding `N#CCn1nc(Cl)c2c(NCc3ccc(S(N)(=O)=NC#N)cc3)ccnc21` (stereo not drawn) [Compound 12H, 4-(((3-chloro-1-(cyanomethyl)-1H-pyrazolo[3,4-b]pyridin-4-yl)amino)methyl)-N′-cyanobenzenesulfonimidamide], the IC50 in assay [1] is 100 to 1000 nM; in assay [2], below 10 nM; in assay [3] it was below 10 nM; in assay [4] it was at least 1000 nM.

For the molecule `N#CCn1nc(Cl)c2c(NCC3CCN([S@](N)(=O)=NC#N)CC3)ccnc21` [Compound 15F, (R)-4-(((3-chloro-1-(cyanomethyl)-1H-pyrazolo[3,4-b]pyridin-4-yl)amino)methyl)-N′-cyanopiperidine-1-sulfonimidamide], the IC50 is 100 to 1000 nM in assay [1], below 10 nM in assay [2], below 10 nM in assay [3] and 100 to 1000 nM in assay [4].

On to `CCn1ncc2c(NCc3ccc(S(=N)(N)=O)cc3)ccnc21` (stereo not drawn) [Compound 2A, 4-(((1-ethyl-1H-pyrazolo[3,4-b]pyridin-4-yl)amino)methyl)benzene sulfonimidamide], for which the IC50 in assay [1] is 100 to 1000 nM; in assay [2], at least 1000 nM; in assay [3] it was 10 to 100 nM; in assay [4] it was at least 1000 nM.

As to `CCn1ncc2c(NCC3CCN(S(C)(=N)=O)CC3)ccnc21` (stereo not drawn) [Compound 4A, 1-ethyl-N-((1-(S-methylsulfonimidoyl)piperidin-4-yl)methyl)-1H-pyrazolo[3,4-b]pyridin-4-amine], the IC50 in assay [1], in assay [2] and in assay [4] was at least 1000 nM throughout.

As for `N=S(N)(=O)c1ccc(CNc2ccnc3[nH]nc(-c4ccccc4)c23)cc1` (stereo not drawn) [Compound 1B, 4-(((3-phenyl-1H-pyrazolo[3,4-b]pyridin-4-yl)amino)methyl)benzenesulfonimidamide], the IC50 in assay [1] is 100 to 1000 nM; in assay [2], 10 to 100 nM; in assay [3], 10 to 100 nM; in assay [4], 100 to 1000 nM.

On to `CCn1ncc2c(NCc3ccc(S(N)(=O)=NC#N)cc3)ccnc21` (stereo not drawn) [Compound 12G, N′-cyano-4-(((1-ethyl-1H-pyrazolo[3,4-b]pyridin-4-yl)amino)methyl)benzenesulfonimidamide], for which the results for the IC50 in assay [1], in assay [2] and in assay [4] were at least 1000 nM, 100 to 1000 nM and at least 1000 nM, respectively.

`CCn1nc(Br)c2c(NCc3ccc(S(=N)(N)=O)cc3)ccnc21` (stereo not drawn) [Compound 2B, 4-(((3-bromo-1-ethyl-1H-pyrazolo[3,4-b]pyridin-4-yl)amino)methyl)benzenesulfonimidamide]: the concentration for half-maximal inhibition (IC50) is 10 to 100 nM in assay [1], 100 to 1000 nM in assay [2], 10 to 100 nM in assay [3] and at least 1000 nM in assay [4].

Regarding `CCn1ncc2c(NCC3CCN(S(=N)(N)=O)CC3)ccnc21` (stereo not drawn) [Compound 1A, 4-(((1-ethyl-1H-pyrazolo[3,4-b]pyridin-4-yl)amino)methyl)piperidine-1-sulfonimidamide], the IC50 in assay [1] was 100 to 1000 nM; in assay [2] it was 100 to 1000 nM; in assay [3] it was 10 to 100 nM; in assay [4] it was at least 1000 nM.

Turning to `C#CCn1nc(Cl)c2c(NCc3ccc([S@@](=N)(=O)NC#N)cc3)ccnc21` [Compound 12K, (S)-4-(((3-chloro-1-(prop-2-yn-1-yl)-1H-pyrazolo[3,4-b]pyridin-4-yl)amino)methyl)-N-cyanobenzenesulfonimidamide], the IC50 in assay [1] was 100 to 1000 nM; in assay [2], below 10 nM; in assay [3] it was below 10 nM; in assay [4], 100 to 1000 nM.

For `CCn1nc(Cl)c2c(NCc3ccc(S(N)(=O)=NC#N)cc3)ccnc21` (stereo not drawn) [Compound 12F, 4-(((3-chloro-1-ethyl-1H-pyrazolo[3,4-b]pyridine-4-yl)amino)methyl)-N′-cyano benzenesulfonimidamide], the IC50 in assay [2] was 10 to 100 nM; in assay [3] it was below 10 nM.

For the molecule `CCn1nc(Cl)c2c(NCc3ccc(S(=N)(=O)CC4CC4)cc3)ccnc21` (stereo not drawn) [Compound 9J, (4-(((3-chloro-1-ethyl-1H-pyrazolo[3,4-b]pyridin-4-yl)amino)methyl)phenyl) (cyclopropylmethyl)(imino)-λ^6-sulfanone], the IC50 was 100 to 1000 nM in assay [2] and below 10 nM in assay [3].

Regarding `CS(=N)(=O)c1ccc(CNc2ccnc3c2c(Cl)nn3CC#N)cc1` (stereo not drawn) [Compound 9F, 2-(3-chloro-4-((4-(S-methylsulfonimidoyl)benzyl)amino)-1H-pyrazolo[3,4-b]pyridin-1-yl)acetonitrile], the IC50 in assay [2] is 10 to 100 nM; in assay [3], below 10 nM.

With `C#CCn1nc(Cl)c2c(NCC3CCN([S@@](C)(=O)=NC#N)CC3)ccnc21` [Compound 14I, (S)-N-((4-(((3-chloro-1-(prop-2-yn-1-yl)-1H-pyrazolo[3,4-b]pyridin-4-yl)amino)methyl)piperidin-1-yl)(methyl)(oxo)-λ6-sulfaneylidene)cyanamide], the IC50 in assay [2] is at least 1000 nM; in assay [3], below 10 nM.

Turning to `CN=S(N)(=O)N1CCC(CNc2ccnc3c2c(Cl)nn3CC#N)CC1` (stereo not drawn) [Compound 15A, 4-(((3-chloro-1-(cyanomethyl)-1H-pyrazolo[3,4-b]pyridin-4-yl)amino)methyl)-N′-methylpiperidine-1-sulfonimidamide], the IC50 was 10 to 100 nM in assay [2] and below 10 nM in assay [3].

As for `CCn1nc(Cl)c2c(NCc3ccc(S(=N)(=O)CCOC)cc3)ccnc21` (stereo not drawn) [Compound 9I, (4-(((3-chloro-1-ethyl-1H-pyrazolo[3,4-b]pyridin-4-yl)amino)methyl)phenyl)(imino)(2-methoxyethyl)-λ6-sulfanone], the IC50 in assay [2] is 100 to 1000 nM; in assay [3], below 10 nM.

On to `CS(=N)(=O)N1CCC(CNc2ccnc3c2c(Cl)nn3CC#N)CC1` (stereo not drawn) [Compound 13D, 2-(3-chloro-4-(((1-(S-methylsulfonimidoyl)piperidin-4-yl)methyl)amino)-1H-pyrazolo[3,4-b]pyridin-1-yl)acetonitrile], for which the half-maximal inhibitory concentration (IC50) was 10 to 100 nM in assay [2] and below 10 nM in assay [3].

Regarding `CCn1nc(Cl)c2c(Nc3ccc(S(N)(=O)=NCC4CC4)cc3)ccnc21` (stereo not drawn) [Compound 5F, 4-((3-chloro-1-ethyl-1H-pyrazolo[3,4-b]pyridin-4-yl)amino)-N′-(cyclopropylmethyl)benzene sulfonimidamide], the IC50 is 100 to 1000 nM in assay [2] and below 10 nM in assay [3].

For `N#CCn1nc(Cl)c2c(NCC3CCN(S(N)(=O)=NC#N)CC3)ccnc21` (stereo not drawn) [Compound 15B, 4-(((3-chloro-1-(cyanomethyl)-1H-pyrazolo[3,4-b]pyridin-4-yl)amino)methyl)-N′-cyanopiperidine-1-sulfonimidamide], the half-inhibitory concentration (IC50) in assay [2] and in assay [3] was below 10 nM in each case.

The values above are taken from patent publication US20260049084A1, “ENPP1 MODULATORS AND PRODUCTS AND USES THEREOF” (Gossamer Bio Services, Inc., priority 2022, published 2026).
